Measured values as given in ChEMBL document CHEMBL1909046, “DrugMatrix in vitro pharmacology data”.

How the values were obtained:
[1] = target: T1, Alpha-1D adrenergic receptor (Homo sapiens, UniProt P25100); assay type: cell membranes, HEK293, Membrane; details: hek293; also: in other assays of this panel Not Active means under 50% inhibition at 10 µM
T1 sequence (P25100 whole entry): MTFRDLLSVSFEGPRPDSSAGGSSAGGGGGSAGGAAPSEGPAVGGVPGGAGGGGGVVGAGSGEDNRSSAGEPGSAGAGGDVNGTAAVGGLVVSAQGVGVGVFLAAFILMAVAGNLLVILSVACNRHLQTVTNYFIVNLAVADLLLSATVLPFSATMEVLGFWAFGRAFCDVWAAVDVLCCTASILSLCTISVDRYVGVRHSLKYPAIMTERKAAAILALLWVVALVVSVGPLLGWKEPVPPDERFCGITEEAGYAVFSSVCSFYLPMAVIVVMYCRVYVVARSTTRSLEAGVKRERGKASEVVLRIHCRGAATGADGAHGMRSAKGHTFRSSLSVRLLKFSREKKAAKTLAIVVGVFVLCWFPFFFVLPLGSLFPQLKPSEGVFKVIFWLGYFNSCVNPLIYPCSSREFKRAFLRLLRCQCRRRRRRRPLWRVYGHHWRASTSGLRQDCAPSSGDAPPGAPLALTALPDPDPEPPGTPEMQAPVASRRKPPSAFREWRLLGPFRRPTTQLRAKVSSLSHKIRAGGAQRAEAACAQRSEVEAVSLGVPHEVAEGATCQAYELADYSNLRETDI

[2] = target: T2, 5-hydroxytryptamine receptor 2C (Homo sapiens, UniProt P28335); assay: DRUGMATRIX: Serotonin (5-Hydroxytryptamine) 5-HT2C radioligand binding (ligand: [3H] Mesulergine); assay type: cell membranes, CHO-K1, Membrane; details: cho-k1; Not Active = under 50% inhibition at 10 µM
T2 sequence (P28335 whole entry): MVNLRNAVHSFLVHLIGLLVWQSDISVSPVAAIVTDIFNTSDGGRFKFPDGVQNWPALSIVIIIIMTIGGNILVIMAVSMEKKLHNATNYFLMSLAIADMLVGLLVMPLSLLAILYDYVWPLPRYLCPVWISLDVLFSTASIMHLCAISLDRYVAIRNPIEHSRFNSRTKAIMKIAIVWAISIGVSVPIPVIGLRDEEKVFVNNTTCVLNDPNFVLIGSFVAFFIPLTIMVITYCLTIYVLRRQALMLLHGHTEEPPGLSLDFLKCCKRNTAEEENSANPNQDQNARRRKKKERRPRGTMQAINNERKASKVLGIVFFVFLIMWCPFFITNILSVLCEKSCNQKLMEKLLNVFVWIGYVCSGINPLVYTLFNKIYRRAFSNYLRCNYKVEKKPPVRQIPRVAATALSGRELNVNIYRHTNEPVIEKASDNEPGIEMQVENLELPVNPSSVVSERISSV

[3] = target: T3, Alpha-1A adrenergic receptor (Rattus norvegicus, UniProt P43140); assay: DRUGMATRIX: Alpha-1A adrenergic receptor radioligand binding (ligand: prazosin); assay type: cell membranes, Wistar, Submaxillary gland, Membrane; details: Not Active = under 50% inhibition at 10 µM
T3 sequence (P43140 whole entry): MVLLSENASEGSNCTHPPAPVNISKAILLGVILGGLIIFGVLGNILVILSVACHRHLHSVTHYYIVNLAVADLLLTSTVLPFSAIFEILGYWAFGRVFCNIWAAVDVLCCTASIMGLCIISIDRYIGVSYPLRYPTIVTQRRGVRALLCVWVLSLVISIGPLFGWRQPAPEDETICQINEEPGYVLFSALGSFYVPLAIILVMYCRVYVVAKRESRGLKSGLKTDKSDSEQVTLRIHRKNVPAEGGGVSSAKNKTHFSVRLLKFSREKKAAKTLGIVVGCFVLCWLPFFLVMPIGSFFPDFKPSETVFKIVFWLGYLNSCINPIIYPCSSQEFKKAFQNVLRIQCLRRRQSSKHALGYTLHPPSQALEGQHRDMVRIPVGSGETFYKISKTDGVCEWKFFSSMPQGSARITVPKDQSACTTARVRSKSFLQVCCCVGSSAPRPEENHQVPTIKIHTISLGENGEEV

[4] = DRUGMATRIX: GABAA, Muscimol, Central radioligand binding (ligand: [3H] Muscimol); assay type: cell membranes, Rattus norvegicus, Wistar, Brain, Membrane; details: Not Active = under 50% inhibition at 10 µM
D(1A) dopamine receptor = D(1A) dopamine receptor (Homo sapiens, UniProt P21728); assay: DRUGMATRIX: Dopamine D1 radioligand binding (ligand: [3H] SCH-23390); assay type: cell membranes, CHO, Membrane; details: cho; Not Active = under 50% inhibition at 10 µM
Sequence of D(1A) dopamine receptor (P21728 whole entry): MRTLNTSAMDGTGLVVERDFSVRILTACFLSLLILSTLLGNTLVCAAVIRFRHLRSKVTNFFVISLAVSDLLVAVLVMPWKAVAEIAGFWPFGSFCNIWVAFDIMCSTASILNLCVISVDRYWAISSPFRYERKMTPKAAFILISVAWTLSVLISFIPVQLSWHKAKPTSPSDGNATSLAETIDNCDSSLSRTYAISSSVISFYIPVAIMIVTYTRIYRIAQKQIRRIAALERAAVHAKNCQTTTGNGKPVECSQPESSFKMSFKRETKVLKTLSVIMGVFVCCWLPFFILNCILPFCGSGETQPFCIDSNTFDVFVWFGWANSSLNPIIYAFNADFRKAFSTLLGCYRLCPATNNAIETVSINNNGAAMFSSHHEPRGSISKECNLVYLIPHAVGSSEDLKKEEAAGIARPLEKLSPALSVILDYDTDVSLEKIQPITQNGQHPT

[5] = target: T4, Neuropeptide Y receptor type 1 (Homo sapiens, UniProt P25929); assay type: cell membranes, Membrane; details: sk-n-mc; also: in other assays of this panel Not Active means under 50% inhibition at 10 µM
T4 sequence (P25929 whole entry): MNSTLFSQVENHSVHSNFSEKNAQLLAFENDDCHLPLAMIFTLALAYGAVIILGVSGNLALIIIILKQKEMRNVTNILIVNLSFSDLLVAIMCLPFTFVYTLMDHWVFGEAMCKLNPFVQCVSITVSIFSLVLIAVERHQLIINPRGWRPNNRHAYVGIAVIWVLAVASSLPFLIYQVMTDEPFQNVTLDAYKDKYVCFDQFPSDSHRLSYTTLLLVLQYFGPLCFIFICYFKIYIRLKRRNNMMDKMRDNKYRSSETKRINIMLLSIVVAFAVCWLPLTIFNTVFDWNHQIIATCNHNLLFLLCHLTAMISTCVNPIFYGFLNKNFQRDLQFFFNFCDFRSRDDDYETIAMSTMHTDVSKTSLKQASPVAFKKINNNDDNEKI

N#CC(C#N)=Cc1ccc(O)c(O)c1 [TYRPHOSTIN 23]
Not Active: IC50 [1] | IC50 [2] | IC50 [3] | IC50 [4] | Ki [4] | IC50 (D(1A) dopamine receptor) | IC50 [5]
